Results on two compounds are retold here after US12728124B2, “Medical use of cystic fibrosis transmembrane conductance regulator (CFTR) modulators” (priority 2020, dated 2026).

Structures are written as SMILES.

Assay [1] has as its target T1, CFTR (Homo sapiens, UniProt P13569). As to the kind of experiment: CFTR expression by Western blotting in HPMECs stimulated with pneumolysin. It counts as cell-based. Particulars: pretreated 10 μmol/L Ivacaftor 24 hours, then 0.25 μg/ml PLY for 18 h; Western blot. As for the experimental part: CFTR expression in endothelial cells was assessed by Western blotting. HPMECs were grown in 6 well plates to confluence. The confluent cells were pretreated with 10 μmol/L Ivacaftor (Cayman chemical) for 24 hours and the next day were stimulated with 0.25 μg/ml PLY for 18 h. Cells were lysed in RIPA buffer and protein concentration was measured by BCA assay and samples were stored at −80° C. or immediately analysed by western blot. Western blots were performed using 7.5% gel. After gel transfer, the blot membrane was incubated for 1 h in 5% milk diluted in tris buffer saline with tween 0.1% (TBS-T) followed by incubation for 24 h with CFTR antibody as the primary antibody diluted 1:500 in TBS-T. The next day, the membrane was incubated for 2 h in donkey anti rabbit as the secondary antibody diluted 1:10000 in TBS-T.

Assay [2] concerns S. pneumoniae infected mice. The assay is described as follows: S. pneumoniae infected mice, Ivacaftor pre-treatment: lung protein leakage, survival, BALF immune cells. The class given is in vivo, mouse.
The subject of assay [3] is human pulmonary microvascular endothelial cells (HPMECs). The class given is cell-based. Particulars: pretreated 24 hours with 10 μmol/L Ivacaftor or 5 μmol/L Lumacaftor, then 0.25 μg/ml pneumolysin; vs pneumolysin alone.
The test system of assay [4] is S. pneumoniae infected mice. The assay is described as follows: S. pneumoniae infected mice, Ivacaftor post-treatment: lung protein leakage. The class given is in vivo, mouse. Particulars: Ivacaftor 2 mg/kg i.p. post-treatment from 6 hours post-infection.
The target of assay [5] is T1, CFTR. The assay is described as follows: CFTR expression by Western blotting in HPMECs stimulated with plasma from patients with severe COVID-19. The class given is cell-based. Particulars: pretreated 10 μmol/L Ivacaftor 24 hours, then 20% (v/v) severe COVID-19 plasma for 24 h; Western blot, densitometry. Here is the method:
CFTR expression in endothelial cells was assessed by Western blotting. HPMECs were grown in 6 well plates to confluence. The confluent cells were pretreated with 10 μmol/L Ivacaftor (Cayman chemical) for 24 hours and the next day were stimulated with the above described plasma from COVID-19 patients or healthy donors for 24 h. As positive control, cells were stimulated with the plasma from COVID-19 patients alone (in the absence of CFTR modulators). Plasma samples were diluted to 20% (v/v) for CFTR immunoblotting.
Cells were lysed in RIPA buffer and protein concentration was measured by BCA assay and samples were stored at −80° C. or immediately analysed by Western blot. Western blots were performed using 7.5% gel. After gel transfer, the blot membrane was incubated for 1 h in 5% milk diluted in tris buffer saline with tween 0.1% (TBS-T) followed by incubation for 24 h with CFTR antibody as the primary antibody diluted 1:500 in TBS-T. The next day, the membrane was incubated for 2 h in donkey anti rabbit as the secondary antibody diluted 1:10000 in TBS-T.

The test system of assay [6] is human pulmonary microvascular endothelial cells (HPMECs). As to the kind of experiment: Endothelial calcium concentration (fura-2 340/380 ratio) in HPMECs stimulated with pneumolysin. The class given is cell-based. Particulars: 10 μmol/L Ivacaftor for 30 min, then PLY 0.25 μg/ml for 30 min. As for the experimental part: Permeability of endothelial cells has been additionally assessed by measuring the endothelial calcium concentration as follows: Increases in the endothelial calcium concentration represent a key mechanism that underlies the increase endothelial cell permeability. Increased endothelial calcium leads to contraction of the cells and increase gap formation between endothelial cells that lead to increased permeability. In this measurement, HPMECs were cultured in channel slides to confluence. The confluent cells were incubated for 30 min with Hanks Balanced Salt Solution containing 5% fetal bovine serum (FBS) and 10 μmol/L of the calcium sensitive dye fura-2-acetoxymethyl ester (fura-2AM) dissolved in Pluronic F-127 (20% solution in DMSO). The cells were then mounted in a heated chamber at 37° C. and perfused with Hank's salt solution containing 5% FBS with 10 μmol/L Ivacaftor (Cayman chemical) for 30 min followed by PLY (0.25 μg/ml) stimulation for 30 min. Fura-2 fluorescence was excited by monochromatic illumination at wavelength 340 and 380 nm. After background correction, the 340/380 ratio was calculated using TillVision 4.0 software (Till Photonics Germany) as a measure of endothelial calcium concentration. As positive or negative controls, cells were stimulated with only pneumolysin or non-treated cells were used, respectively.

The test system is the same in assay [7]. As to the kind of experiment: Transendothelial electrical resistance (ECIS) of HPMECs stimulated with plasma from patients with severe COVID-19. The class given is cell-based. As to conditions: pretreated 24 hours with 10 μmol/L Ivacaftor or 5 μmol/L Lumacaftor, then 10% (v/v) severe COVID-19 plasma for 24 h.
Assay [8] addresses T2, CFTR (Mus musculus, UniProt P26361).
T2 construct: Ivacaftor pre-treatment stabilized the expression of CFTR in lungs of mice infected with S. pneumoniae; from tissue; host or cells: mouse lung tissue (mice from Charles River, Germany)
As to the kind of experiment: CFTR expression by Western blotting in lungs of S. pneumoniae infected mice. The class given is in vivo. As to conditions: Ivacaftor 2 mg/kg i.p. pre-treatment; Western blot. Background: In western blotting, separated proteins are transferred to a membrane and probed.

[9] abbreviates: Ivacaftor 2 mg/kg i.p. pre-treatment, S. pneumoniae infected mice, 48 h p.i., FACS.

T1 sequence (P13569 whole entry, looked up): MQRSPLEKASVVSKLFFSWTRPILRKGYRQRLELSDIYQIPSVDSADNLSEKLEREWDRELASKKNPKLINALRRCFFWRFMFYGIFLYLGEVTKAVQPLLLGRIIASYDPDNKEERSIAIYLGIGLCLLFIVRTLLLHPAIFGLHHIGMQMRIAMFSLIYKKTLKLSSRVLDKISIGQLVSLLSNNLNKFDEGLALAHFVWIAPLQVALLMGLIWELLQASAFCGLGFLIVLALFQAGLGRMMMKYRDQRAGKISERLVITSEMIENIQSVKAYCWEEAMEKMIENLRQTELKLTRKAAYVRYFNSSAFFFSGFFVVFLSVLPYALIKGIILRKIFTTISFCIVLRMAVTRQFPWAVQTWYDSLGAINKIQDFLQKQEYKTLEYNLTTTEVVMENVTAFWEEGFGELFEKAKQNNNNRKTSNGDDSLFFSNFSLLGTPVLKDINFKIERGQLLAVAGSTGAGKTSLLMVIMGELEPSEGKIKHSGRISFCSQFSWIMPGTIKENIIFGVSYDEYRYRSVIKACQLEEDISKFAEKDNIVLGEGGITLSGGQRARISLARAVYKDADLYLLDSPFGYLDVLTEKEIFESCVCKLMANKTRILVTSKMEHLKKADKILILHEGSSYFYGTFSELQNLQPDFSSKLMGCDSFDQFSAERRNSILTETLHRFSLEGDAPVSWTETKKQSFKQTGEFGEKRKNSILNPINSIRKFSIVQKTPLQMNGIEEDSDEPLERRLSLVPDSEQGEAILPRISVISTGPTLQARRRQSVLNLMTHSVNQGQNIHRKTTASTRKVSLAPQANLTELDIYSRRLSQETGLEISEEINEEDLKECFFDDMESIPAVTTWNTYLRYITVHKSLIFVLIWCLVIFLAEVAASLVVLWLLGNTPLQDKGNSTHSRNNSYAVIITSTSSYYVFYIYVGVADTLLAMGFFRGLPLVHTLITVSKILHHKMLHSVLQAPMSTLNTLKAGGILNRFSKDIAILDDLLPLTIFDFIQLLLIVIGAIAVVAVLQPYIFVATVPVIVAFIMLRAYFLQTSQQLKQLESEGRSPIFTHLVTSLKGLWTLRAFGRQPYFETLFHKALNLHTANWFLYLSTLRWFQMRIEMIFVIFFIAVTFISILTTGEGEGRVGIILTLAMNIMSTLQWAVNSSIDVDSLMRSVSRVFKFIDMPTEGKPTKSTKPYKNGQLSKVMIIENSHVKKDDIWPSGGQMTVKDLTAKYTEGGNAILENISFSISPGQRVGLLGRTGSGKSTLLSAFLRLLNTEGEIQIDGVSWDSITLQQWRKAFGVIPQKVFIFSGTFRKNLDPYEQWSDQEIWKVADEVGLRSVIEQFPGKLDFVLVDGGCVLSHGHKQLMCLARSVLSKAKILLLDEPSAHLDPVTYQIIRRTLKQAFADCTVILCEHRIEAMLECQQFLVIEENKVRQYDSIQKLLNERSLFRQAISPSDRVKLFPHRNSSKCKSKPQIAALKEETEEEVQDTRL
T2 sequence (P26361 whole entry): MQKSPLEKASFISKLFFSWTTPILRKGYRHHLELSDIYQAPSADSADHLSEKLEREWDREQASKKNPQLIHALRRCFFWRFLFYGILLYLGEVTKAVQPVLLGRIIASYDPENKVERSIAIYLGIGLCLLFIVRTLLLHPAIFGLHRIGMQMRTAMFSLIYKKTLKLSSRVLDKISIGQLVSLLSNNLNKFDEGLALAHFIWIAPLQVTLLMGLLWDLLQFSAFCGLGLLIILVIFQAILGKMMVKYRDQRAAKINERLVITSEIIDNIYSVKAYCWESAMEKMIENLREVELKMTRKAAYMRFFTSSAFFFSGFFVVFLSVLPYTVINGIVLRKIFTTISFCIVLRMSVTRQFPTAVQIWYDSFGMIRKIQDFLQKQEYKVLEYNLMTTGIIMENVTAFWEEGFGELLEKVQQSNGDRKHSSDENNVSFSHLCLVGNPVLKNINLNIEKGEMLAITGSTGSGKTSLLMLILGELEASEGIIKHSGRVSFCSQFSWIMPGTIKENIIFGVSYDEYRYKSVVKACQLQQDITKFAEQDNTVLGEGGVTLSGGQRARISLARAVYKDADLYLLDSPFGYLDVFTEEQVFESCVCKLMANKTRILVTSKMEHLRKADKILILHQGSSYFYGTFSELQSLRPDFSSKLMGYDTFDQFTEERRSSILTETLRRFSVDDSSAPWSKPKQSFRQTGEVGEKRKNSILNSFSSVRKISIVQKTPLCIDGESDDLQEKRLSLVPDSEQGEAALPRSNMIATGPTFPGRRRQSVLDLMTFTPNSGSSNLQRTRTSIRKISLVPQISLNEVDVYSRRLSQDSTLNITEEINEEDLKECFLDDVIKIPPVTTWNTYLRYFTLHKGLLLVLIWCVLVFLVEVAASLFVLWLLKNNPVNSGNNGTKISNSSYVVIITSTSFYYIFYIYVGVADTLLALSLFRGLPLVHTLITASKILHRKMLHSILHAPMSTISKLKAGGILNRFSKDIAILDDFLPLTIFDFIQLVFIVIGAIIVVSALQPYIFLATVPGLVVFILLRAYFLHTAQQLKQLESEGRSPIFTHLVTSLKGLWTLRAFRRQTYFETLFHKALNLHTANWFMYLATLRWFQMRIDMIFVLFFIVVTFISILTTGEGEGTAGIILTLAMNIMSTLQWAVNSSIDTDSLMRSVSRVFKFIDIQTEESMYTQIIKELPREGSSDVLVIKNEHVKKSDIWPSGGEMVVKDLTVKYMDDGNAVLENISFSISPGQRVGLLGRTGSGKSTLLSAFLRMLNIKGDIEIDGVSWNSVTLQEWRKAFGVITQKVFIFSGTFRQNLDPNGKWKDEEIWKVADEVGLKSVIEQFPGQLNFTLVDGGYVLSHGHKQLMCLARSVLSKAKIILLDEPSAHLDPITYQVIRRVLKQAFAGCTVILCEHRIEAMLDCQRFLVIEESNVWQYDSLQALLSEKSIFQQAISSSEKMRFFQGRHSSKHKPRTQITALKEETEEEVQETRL

For `CC(C)(C)c1cc(C(C)(C)C)c(NC(=O)c2c[nH]c3ccccc3c2=O)cc1O` [Ivacaftor, N-(5-hydroxy-2,4-ditert-butyl-phenyl)-4-oxo-1H-quinoline-3-carboxamide], the “CFTR expression in HPMECs after pneumolysin stimulation” value at CFTR [1] is listed as “CFTR expression comparable to control cells”. Besides, the “survival rate in S. pneumoniae infected mice” value in assay [2] (Ivacaftor 2 mg/kg i.p. pre-treatment) is “increased survival rate”. The “endogenous mouse serum albumin BALF/plasma ratio (protein leakage into the lung)” value in assay [2] (Ivacaftor 2 mg/kg i.p. pre-treatment from 24 h before infection, 48 h post infection with S. pneumoniae) is reported as “reduced protein leakage into the lung”. In addition, the “exogenous human serum albumin (HSA) BALF/plasma ratio (protein leakage into the lung)” value in assay [2] (Ivacaftor 2 mg/kg i.p. pre-treatment from 24 h before infection, HSA i.v. 1 h before BAL, 48 h post infection) is listed as “reduced protein leakage into the lung”. In assay [2] (setting [9]), the “inflammatory macrophages in BALF” value is reported as “decreased the levels of all three inflammatory cell subsets in the BALF”, the “leukocytes in BALF” value is recorded as “decreased the levels of all three inflammatory cell subsets in the BALF” and the “polymorphonuclear leukocytes (PMN) in BALF” value is “decreased the levels of all three inflammatory cell subsets in the BALF”. Also, the “transendothelial electrical resistance of HPMEC monolayer after pneumolysin stimulation” value in assay [3] was “less reduced resistance”. Also, in assay [4] (48 h post infection with S. pneumoniae), the “endogenous mouse serum albumin BALF/plasma ratio (protein leakage into the lung)” value is recorded as “reduced protein leakage into the lung”. Further, the “exogenous human serum albumin (HSA) BALF/plasma ratio (protein leakage into the lung)” value in assay [4] (HSA i.v. 1 h before BAL, 48 h post infection) is recorded as “reduced protein leakage into the lung”. Further, at CFTR [5], the “CFTR expression in HPMECs after stimulation with plasma from COVID-19 patients” value is “CFTR expression comparable to control cells”. For the same compound, in assay [6], the “endothelial calcium concentration ([Ca2+]i) after pneumolysin stimulation” value is “lesser increase”. Besides, the “transendothelial electrical resistance of HPMECs after stimulation with plasma from COVID-19 patients” value in assay [7] is “less reduced transendothelial electrical resistance”. Also, at CFTR [8], the “CFTR expression in lungs of S. pneumoniae infected mice” value is “stabilized expression of CFTR”.

`Cc1ccc(NC(=O)C2(c3ccc4c(c3)OC(F)(F)O4)CC2)nc1-c1cccc(C(=O)O)c1` [Lumacaftor, 3-[6-({[1-(2,2-difluoro-1,3-benzodioxol-5-yl)cyclopropyl]carbonyl}amino)-3-methylpyridin-2-yl]benzoic acid]: the “transendothelial electrical resistance of HPMEC monolayer after pneumolysin stimulation” value in assay [3] is reported as “less reduced resistance”. The “transendothelial electrical resistance of HPMECs after stimulation with plasma from COVID-19 patients” value in assay [7] is listed as “less reduced transendothelial electrical resistance”.
